{"source": "patent US12566184B2", "about": "“Cell-free biosensors to detect creatinine, creatine, and sarcosine” (Georgia Tech Research Corporation, priority 2021, dated 2026)", "system": "colored probe product", "assay": "enzymatic creatinine assay with limited chemical probe (Amplex Red): stabilization of probe signal by antioxidants", "format": "biochemical", "details": "antioxidants added at different concentrations; chemical probe at low concentration", "text": "The existing assay is a purely enzymatic approach that translates the concentration of creatinine into a colorimetric change of varying intensity. It contains two enzymes. The first enzyme, creatininase, catalyzes the conversion of creatinine to creatine. The second enzyme, creatinase, catalyzes creatine to sarcosine. This bioconversion aspect of the assay can be maintained in both of the embodiments. In the existing assay, the sarcosine is then oxidized by sarcosine oxidase, generating hydrogen peroxide in the process. The fluorogenic peroxidase substrate Amplex Red, hereafter referred to as the “probe”, interacts with the generated hydrogen peroxide in the presence of horseradish peroxidase to produce the red-fluorescent product resorufin (see Yamkamon et al. Simultaneous determination of sarcosine and its related metabolites by gas chromatography-tandem mass spectrometry for prostate cancer diagnosis, EXCLI Journal, 2018). Resorufin accumulation leads to a visible color change with a linear response over physiological serum creatinine concentrations. However, there is significant day-to-day variability of unknown origin that affects the amplitude of the output, thus requiring (per manufacturer's instructions) a calibration curve to be run with every sample or batch of samples and complicating field deployment.\nIn certain embodiments of the disclosed invention, the existing assay can be taken in its entirety and titrated down the amount of probe (fluorogenic peroxidase substrate, Amplex Red) so as to produce a sample-specific calibration curve. The probe concentration that corresponds with specific creatinine concentrations in calibration tests can be first identified using defined chemical mixtures and then implemented in a serum sample matrix to validate the sample-specific calibration curve. […] This method yields a set of reactions to which patient sample can be added, and regardless of the sample levels of creatinine, the calibration spots will all correspond to defined levels of creatinine. The reaction with excess probe can then be visually compared to the calibration spots to determine the creatinine level. In particular, a shift from colorless to red may be useful for a presence-absence or binary diagnostic test. For more accurate monitoring of intensity of color, a plate reader (e.g., spectrophotometer or fluorescence reader) can be used.\nFurthermore, in order to reduce the patient-to-patient variability in readouts, also known as matrix effects, where the molecule being measured may appear to be at a different concentration only due to interferences from other constituents of the solution, the inventors identified that the appropriate reagent to limit was not the enzymes in the chemical assay, but rather the chemical probe. However, when the concentration of the chemical probe was reduced to a low level to enable the calibration approach, a side reaction happened where probe that has been transformed from colorless into colored form undergoes a second reaction that brings it back to a colorless form. This made the signal “decay” and thus would lead to an underreporting of the target molecule's concentration.", "data": [{"compound": "Cc1c(C)c2c(c(C)c1O)CCC(C)(C(=O)O)O2", "note": "(racemic) [(±)-6-Hydroxy-2,5,7,8-tetramethylchromane-2-carboxylic acid]", "values": [{"measurement": "effect on decay of probe signal (transformation of colored probe product into colorless side product)", "value": "preventing the decay of probe signal"}]}, {"compound": "N[C@@H](CCC(=O)N[C@@H](CS)C(=O)NCC(=O)O)C(=O)O", "note": "[L-glutathione (reduced)]", "values": [{"measurement": "effect on decay of probe signal (transformation of colored probe product into colorless side product)", "value": "preventing the decay of probe signal"}]}, {"compound": "O=C1O[C@H]([C@@H](O)CO)C(O)=C1O", "note": "[Vitamin C]", "values": [{"measurement": "effect on decay of probe signal (transformation of colored probe product into colorless side product)", "value": "preventing the decay of probe signal"}]}, {"compound": "O=C(O)CC(O)(CC(=O)O)C(=O)O", "note": "[citric acid]", "values": [{"measurement": "effect on decay of probe signal (transformation of colored probe product into colorless side product)", "value": "preventing the decay of probe signal"}]}, {"compound": "O=c1[nH]c(=O)c2[nH]c(=O)[nH]c2[nH]1", "note": "[uric acid]", "values": [{"measurement": "effect on decay of probe signal (transformation of colored probe product into colorless side product)", "value": "preventing the decay of probe signal"}]}, {"compound": "Vitamin E", "values": [{"measurement": "effect on decay of probe signal (transformation of colored probe product into colorless side product)", "value": "preventing the decay of probe signal"}]}]}
